From patent US20230128114A1, “METHODS AND COMPOSITIONS FOR TREATING OR PREVENTING AN INFLAMMATORY CONDITION” (priority 2020, published 2023)
Where two headings read alike, the source gives them in different places.

Columns and labels:
[1] = system: human peripheral blood mononuclear cells (PBMCs) stimulated with bacterial lipopolysaccharide (LPS); assay: Cytokine release from LPS-stimulated human PBMCs (checkerboard, Luminex), Bliss synergy; assay type: cell-based; settings: PBMC
Procedure: The anti-inflammatory activity the combination of CBD and hydroxychloroquine was assessed by determining cytokine release from human peripheral blood mononuclear cells (PBMCs) stimulated with bacterial lipopolysaccharide (LPS) using a Luminex based assay. A 96-well microtitre plate-based checkerboard assay with seven concentrations (including the no drug control) of CBD and hydroxychloroquine were assessed in combination was used to determine the drug-drug interaction. Briefly, frozen PMBCs from two independent donors were thawed, diluted in culture medium, seeded into 96-well microtitre plates and incubated at 37° C., 5% CO2 for 1 hour prior to the addition of test compounds. After the addition of the test compounds the cells were returned to the incubator for 1 hour, after which LPS was added to the wells. Plates were incubated at 37° C., 5% CO2 for 24 hours. After 24 hours, cell culture supernatants were removed and analysed for cytokine levels using Luminex methodology according to manufacturers' instructions. All values had the vehicle background subtracted prior to further analysis. Three plates were set up in parallel using the PBMCs from the same donor. Inhibition of cytokine release was determined relative to the no treatment control (i.e., that was stimulated with LPS) and averaged across the three replicates. A cytotoxicity assay using AlmarBlue with the identical plate set up was performed in parallel.
Drug synergy was determined using the Bliss Independence method where the predicted effect of the drug combination is calculated using the equation: […]
Synergy values for each combination of drug concentrations were calculated using the Excess Over Bliss method (the difference between the observed and predicted inhibition) described by, e.g., Liu et al. (2018, Statistics in Biopharmaceutical Research, 10: 112-122, where a value greater than 0 is indicative of synergy and the higher the value the stronger the synergy.

[2] = Solubility of formulations for in vivo analysis (visual observation); assay type: physicochemical
Description: Cannabidiol (CBD) and hydroxychloroquine (HCQ), were purchased by Pharmacology Discovery Services Taiwan, Ltd. The formulations are summarised in Table 3.

With `CCN(CCO)CCCC(C)Nc1ccnc2cc(Cl)ccc12` (stereo not drawn) [HCQ] the inhibition at 0.63 µg/mL ([1]; Donor 1, HCQ 0.63 μg/mL alone, read-out: FIE (fractional inhibitory effect), IL-1α release) was 3%, the inhibition at 0.63 µg/mL ([1]; Donor 1, HCQ 0.63 μg/mL alone, read-out: FIE (fractional inhibitory effect), IL-1β release) was 8% and the inhibition at 0.63 µg/mL ([1]; Donor 1, HCQ 0.63 μg/mL alone, read-out: FIE (fractional inhibitory effect), IL-6 release) was 12%. It also gave an inhibition at 0.63 µg/mL ([1]; Donor 1, HCQ 0.63 μg/mL alone, read-out: FIE (fractional inhibitory effect), TNF-α release) of 0%, an inhibition at 1.25 µg/mL ([1]; Donor 1, HCQ 1.25 μg/mL alone, read-out: FIE (fractional inhibitory effect), IL-1α release) of 1% and an inhibition at 1.25 µg/mL ([1]; Donor 1, HCQ 1.25 μg/mL alone, read-out: FIE (fractional inhibitory effect), IL-1β release) of 7%. It also gave an inhibition at 1.25 µg/mL ([1]; Donor 1, HCQ 1.25 μg/mL alone, read-out: FIE (fractional inhibitory effect), IL-6 release) of 0%, an inhibition at 1.25 µg/mL ([1]; Donor 1, HCQ 1.25 μg/mL alone, read-out: FIE (fractional inhibitory effect), TNF-α release) of 8% and an inhibition at 2.5 µg/mL ([1]; Donor 1, HCQ 2.50 μg/mL alone, read-out: FIE (fractional inhibitory effect), IL-1α release) of 12%. For the same compound, the inhibition at 2.5 µg/mL ([1]; Donor 1, HCQ 2.50 μg/mL alone, read-out: FIE (fractional inhibitory effect), IL-1β release) was 8%, the inhibition at 2.5 µg/mL ([1]; Donor 1, HCQ 2.50 μg/mL alone, read-out: FIE (fractional inhibitory effect), IL-6 release) was 10% and the inhibition at 2.5 µg/mL ([1]; Donor 1, HCQ 2.50 μg/mL alone, read-out: FIE (fractional inhibitory effect), MIP-1α release) was 0%. For the same compound, the inhibition at 2.5 µg/mL ([1]; Donor 1, HCQ 2.50 μg/mL alone, read-out: FIE (fractional inhibitory effect), TNF-α release) was 5%, the inhibition at 5 µg/mL ([1]; Donor 1, HCQ 5.00 μg/mL alone, read-out: FIE (fractional inhibitory effect), IL-1α release) was 24% and the inhibition at 5 µg/mL ([1]; Donor 1, HCQ 5.00 μg/mL alone, read-out: FIE (fractional inhibitory effect), IL-1β release) was 17%. For the same compound, the inhibition at 5 µg/mL ([1]; Donor 1, HCQ 5.00 μg/mL alone, read-out: FIE (fractional inhibitory effect), IL-6 release) was 8%, the inhibition at 5 µg/mL ([1]; Donor 1, HCQ 5.00 μg/mL alone, read-out: FIE (fractional inhibitory effect), TNF-α release) was 2% and the inhibition at 10 µg/mL ([1]; Donor 1, HCQ 10.00 μg/mL alone, read-out: FIE (fractional inhibitory effect), IL-1α release) was 50%. The inhibition at 10 µg/mL ([1]; Donor 1, HCQ 10.00 μg/mL alone, read-out: FIE (fractional inhibitory effect), IL-1β release) was 68%, the inhibition at 10 µg/mL ([1]; Donor 1, HCQ 10.00 μg/mL alone, read-out: FIE (fractional inhibitory effect), IL-6 release) was 0% and the inhibition at 10 µg/mL ([1]; Donor 1, HCQ 10.00 μg/mL alone, read-out: FIE (fractional inhibitory effect), TNF-α release) was 4%. It also gave an inhibition at 20 µg/mL ([1]; Donor 1, HCQ 20.00 μg/mL alone, read-out: FIE (fractional inhibitory effect), IL-1α release) of 54%, an inhibition at 20 µg/mL ([1]; Donor 1, HCQ 20.00 μg/mL alone, read-out: FIE (fractional inhibitory effect), IL-1β release) of 81% and an inhibition at 20 µg/mL ([1]; Donor 1, HCQ 20.00 μg/mL alone, read-out: FIE (fractional inhibitory effect), IL-6 release) of 12%. The inhibition at 20 µg/mL ([1]; Donor 1, HCQ 20.00 μg/mL alone, read-out: FIE (fractional inhibitory effect), MIP-1α release) was 0%, the inhibition at 20 µg/mL ([1]; Donor 1, HCQ 20.00 μg/mL alone, read-out: FIE (fractional inhibitory effect), TNF-α release) was 30% and the inhibition at 0.63 µg/mL ([1]; Donor 2, HCQ 0.63 μg/mL alone, read-out: FIE (fractional inhibitory effect), IL-1α release) was 7%. For the same compound, the inhibition at 0.63 µg/mL ([1]; Donor 2, HCQ 0.63 μg/mL alone, read-out: FIE (fractional inhibitory effect), IL-1β release) was 6%, the inhibition at 1.25 µg/mL ([1]; Donor 2, HCQ 1.25 μg/mL alone, read-out: FIE (fractional inhibitory effect), IL-1α release) was 11% and the inhibition at 2.5 µg/mL ([1]; Donor 2, HCQ 2.50 μg/mL alone, read-out: FIE (fractional inhibitory effect), IL-1α release) was 19%. For the same compound, the inhibition at 2.5 µg/mL ([1]; Donor 2, HCQ 2.50 μg/mL alone, read-out: FIE (fractional inhibitory effect), IL-1β release) was 7%, the inhibition at 5 µg/mL ([1]; Donor 2, HCQ 5.00 μg/mL alone, read-out: FIE (fractional inhibitory effect), IL-1α release) was 49% and the inhibition at 5 µg/mL ([1]; Donor 2, HCQ 5.00 μg/mL alone, read-out: FIE (fractional inhibitory effect), TNF-α release) was 2%. For the same compound, the inhibition at 10 µg/mL ([1]; Donor 2, HCQ 10.00 μg/mL alone, read-out: FIE (fractional inhibitory effect), IL-1α release) was 68%, the inhibition at 10 µg/mL ([1]; Donor 2, HCQ 10.00 μg/mL alone, read-out: FIE (fractional inhibitory effect), IL-6 release) was 11% and the inhibition at 10 µg/mL ([1]; Donor 2, HCQ 10.00 μg/mL alone, read-out: FIE (fractional inhibitory effect), MIP-1α release) was 0%. The inhibition at 10 µg/mL ([1]; Donor 2, HCQ 10.00 μg/mL alone, read-out: FIE (fractional inhibitory effect), TNF-α release) was 18%, the inhibition at 20 µg/mL ([1]; Donor 2, HCQ 20.00 μg/mL alone, read-out: FIE (fractional inhibitory effect), IL-1α release) was 63% and the inhibition at 20 µg/mL ([1]; Donor 2, HCQ 20.00 μg/mL alone, read-out: FIE (fractional inhibitory effect), IL-6 release) was 47%. The inhibition at 20 µg/mL ([1]; Donor 2, HCQ 20.00 μg/mL alone, read-out: FIE (fractional inhibitory effect), MIP-1α release) was 0% and the Solubil. [2] was “S”.

Work on `C=C(C)[C@@H]1CCC(C)=C[C@H]1c1c(O)cc(CCCCC)cc1O` [CBD, cannabidiol] yielded an inhibition at 5 µg/mL ([1]; Donor 1, CBD 5.00 μg/mL alone, read-out: FIE (fractional inhibitory effect), IL-1α release) of 40%, an inhibition at 5 µg/mL ([1]; Donor 1, CBD 5.00 μg/mL alone, read-out: FIE (fractional inhibitory effect), IL-1β release) of 38% and an inhibition at 5 µg/mL ([1]; Donor 1, CBD 5.00 μg/mL alone, read-out: FIE (fractional inhibitory effect), IL-6 release) of 8%. The inhibition at 5 µg/mL ([1]; Donor 1, CBD 5.00 μg/mL alone, read-out: FIE (fractional inhibitory effect), MIP-1α release) was 12%, the inhibition at 5 µg/mL ([1]; Donor 1, CBD 5.00 μg/mL alone, read-out: FIE (fractional inhibitory effect), TNF-α release) was 5% and the inhibition at 5 µg/mL ([1]; Donor 2, CBD 5.00 μg/mL alone, read-out: FIE (fractional inhibitory effect), IL-1α release) was 28%. It also gave an inhibition at 5 µg/mL ([1]; Donor 2, CBD 5.00 μg/mL alone, read-out: FIE (fractional inhibitory effect), IL-1β release) of 13%, an inhibition at 5 µg/mL ([1]; Donor 2, CBD 5.00 μg/mL alone, read-out: FIE (fractional inhibitory effect), IL-6 release) of 9% and an inhibition at 5 µg/mL ([1]; Donor 2, CBD 5.00 μg/mL alone, read-out: FIE (fractional inhibitory effect), MIP-1α release) of 0%. For the same compound, the inhibition at 5 µg/mL ([1]; Donor 2, CBD 5.00 μg/mL alone, read-out: FIE (fractional inhibitory effect), TNF-α release) was 7%.
